Patent US7994127B2, “Treatment of rett syndrome” (Massachusetts Institute of Technology, priority 2007, dated 2011)

What was measured:
[1] = tested on: visual cortex of adult MeCP2+/− mice; assay: Ocular dominance plasticity after monocular deprivation, optical imaging of intrinsic signals; format: in vivo, mouse
MeCP2−/y mice = assay: Survival and disease progression (Kaplan-Meier); format: in vivo, mouse
Description: A. (1-3) IGF-1 reduces the frequency of bradycardia in MeCP2 null mice. Pooled heart rate distributions observed across mice from different treatments, in beats per minute (bpm). The Y axis depicts the percent of observations within an experimental group that exceed a given bpm value (X axis). Comparisons are between 8 week old animals (WT or KO), some of which received (1-3)IGF-1 treatment for 6 weeks (KO-T). The KO distribution (pink) was left-shifted compared to the wild-type distribution (black), indicating a significant reduction in the distribution of heart rates. […] B. (1-3)IGF-1 treatment improves locomotor function in MeCP2 null mice. Baseline nocturnal activity was measured by placing animals in cages equipped with a movement detector (infrared beam). […] “N”=number of animals per group. C. (1-3)IGF-1 treated MeCP2 KO mice have longer life expectancy than vehicle treated controls. Kaplan-Meier survival curves for MeCP2-/y mice treated with vehicle (KO, red line) or (1-3)IGF-1 (KO-T, green line). […] MeCP2-/y mice were given daily IP injections of (1-3)IGF-1 (0.01 mg/g body weight/day) every day from 2 weeks of age onward. “n” is the number of mice per experimental group. (1-3)IGF-1 treatment: For the survival measurements, the nocturnal activity analysis and the immunoblot analysis, (1-3) IGF-1 (Bachem Biosciences # H22468) was administered daily via intra-peritoneal injections (0.01 mg/g body weight, vehicle=saline, 0.01% BSA). The treatment was started at P15 and maintained throughout the course of the experiments. For intracellular physiology experiments, the mice were injected daily (0.01 mg/g body weight, vehicle=saline, 0.01% BSA) for 2 weeks, from P15 to P28-P32 when they were used for acute slice preparation. For optical imaging experiments, mice were injected with (1-3) IGF-1 (0.02 mg/g body weight, vehicle=saline, 0.01% BSA) daily from the day of the lid suture to the day of imaging. Slice physiology preparation: Coronal sections (300 μm thick) at or near sensorimotor cortex were cut in <4° C. ACSF using a Vibratome. Slices were incubated at 37° C. for 20 minutes after slicing, and at room temperature for the remainder of the experiment. Slices were transferred to a Warner chamber and recordings were taken from visually identified pyramidal neurons located in layer 5. […] Cells were visualized with an Achroplan 40× water-immersion lens with infrared-DIC optics (Zeiss) and detected with an infrared camera (Hamamatsu) projecting to a video monitor. […] Then in current clamp 10 pulses (500 ms, 40-140 pA at 10 pA increments), were applied to quantify evoked firing rates and cellular excitability. […]

wild type young mice = conditions: Tropea et al., 2006; cited from earlier work
[2] = in vivo; cited from earlier work

Compound: NCC(=O)N1CCC[C@H]1C(=O)N[C@@H](CCC(=O)O)C(=O)O [(1-3)IGF-1, glycyl-L-prolyl-L-glutamic acid]
- maturation of cortical circuitry during ocular dominance plasticity (FIG. 9B) ([1]; (1-3)IGF-1 as in Example 1): promoted to similar degrees
- ocular dominance plasticity (ODI shift after MD, FIG. 3C-D) ([1]; female MeCP2+/− mice P60 or more, MD 4 days, 0.02 mg/g body weight IP daily during MD): prevented the OD plasticity
- life expectancy, Kaplan-Meier survival curves (FIG. 4C) (MeCP2−/y mice; KO-T vs vehicle treated littermates, P=0.54*10^−7, log rank test): significantly longer life expectancy
- increase in life expectancy (MeCP2−/y mice; MeCP2−/y mice treated vs MeCP2 KO littermates, 0.01 mg/g body weight/day IP from 2 weeks of age): ~50%
- 0.5 probability survival (MeCP2−/y mice; MeCP2−/y mice treated, untreated KO ~60 days): 90 days
- age at which symptoms develop (MeCP2−/y mice; treated MeCP2 knockout mice vs controls): at the same age as controls
- OD plasticity (wild type young mice): abolish OD plasticity
- crossing the blood-brain barrier [2]: capable of crossing the blood-brain barrier
